Legend:
[1] = molecular target: T1, recombinant full-length 2N4R tau fibrils (Homo sapiens, UniProt P10636); assay: SPR binding kinetics on immobilized full-length 2N4R tau fibrils; details: surface ZC150D, surface density 2900 RU, sum2exp model, two components per analyte
T1 construct: full-length 2N4R tau (441 aa); made in house; host or cells: E. coli
Experimental: [The source words this procedure for another variant and reports this variant under the same test.] (§1) SPR measurements were conducted in HEPES-buffered saline (HBS, Teknova, USA) buffer at 20 °C using Biacore instruments T200 and S200 (Cytiva, Uppsala, Sweden). Aβ42, tau, and αSyn recombinant fibrils were immobilized in the flow cell of sensor chips produced by Xantec (Düsseldorf, Germany) and Cytiva by coupling fibril amine groups to sulfo-N-hydroxysuccinimide (sulfo-NHS)-activated carboxylic acid groups on the chip surface. Since no nonbinding fibril(s) were available, the reference flow cell remained empty. […]
(§2) The immobilized fibrils were stable for a few days. Kinetic constants for binding were determined by injection of a dilution series of 5–8 concentrations of ligand in HBS buffer at a flow rate of 30 µL/minute in duplicate ("full kinetics").
(§3) The data was evaluated using BiaEvaluate v2.03 software (Cytiva, Sweden). Binding kinetics were analyzed globally using different kinetic models, including 1 + 1, a sum of two exponentials model ("heterogeneous ligand" in terms of BiaEvaluate, sum2exp), and a sum of three exponentials model (sum3exp) that was created using the script editor of the software.

[2] = molecular target: T2, recombinant Aβ42 fibrils (Homo sapiens, UniProt P05067); assay: SPR binding kinetics on immobilized Aβ42 fibrils; details: surface ZC150D, surface density 1770 RU, sum2exp model, two components per analyte
T2 construct: Recombinant Aβ42, K18-tau, full-length 2N4R tau (441 aa) and αSyn were expressed; made in house; host or cells: E. coli
T2 sequence (P05067 672-713 limits assumed): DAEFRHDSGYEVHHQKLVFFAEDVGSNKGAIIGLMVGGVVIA
Experimental: as §1, §2, §3

[3] = molecular target: T3, pS129-positive αSyn inclusions (Mus musculus, UniProt O55042); assay: Immunofluorescence staining and colocalization, αSyn PFF-injected mouse brain; details: for M1, fraction of A overlapping B / M2, fraction of B overlapping A: Manders' coefficient, αSyn PFF injected mouse, antibody (A) pS129, ligand (B); for Colocalization of ligand with pS129 signal: αSyn-PFF-injected mice, 12 weeks after injection, PPN, periaqueductal gray, SNc, nucleus accumbens
T3 construct: from tissue; host or cells: brain of αSyn PFF-injected C57BL/6J mice

[4] = molecular target: T4, recombinant αSyn fibrils (Homo sapiens, UniProt P37840); assay: SPR binding kinetics on immobilized αSyn fibrils; details: surface CMD200M, surface density 2940-3400 RU, sum2exp model, two components (lines) per analyte; for kon: read-out: ka, rate constant of association
T4 construct: made in house; host or cells: E. coli
Experimental: SPR measurements were conducted in HEPES-buffered saline (HBS, Teknova, USA) buffer at 20 °C using Biacore instruments T200 and S200 (Cytiva, Uppsala, Sweden). Aβ42, tau, and αSyn recombinant fibrils were immobilized in the flow cell of sensor chips produced by Xantec (Düsseldorf, Germany) and Cytiva by coupling fibril amine groups to sulfo-N-hydroxysuccinimide (sulfo-NHS)-activated carboxylic acid groups on the chip surface. Since no nonbinding fibril(s) were available, the reference flow cell remained empty. Different chip surfaces, including the carboxymethylated dextran surface CM5 (Cytiva, Sweden), the carboxymethyldextran hydrogel surface CMD200M, the linear polycarboxylate hydrogel surface HC30M and HC1500M, the linear polycarboxylate hydrogel (reduced charge) surface HLC30M, and the zwitterionic hydrogel surface ZC150D (all from Xantec, Germany), were tested to obtain a high immobilization density and low nonspecific adsorption of ligands. All steps for surface preparation and immobilization were conducted at a flow rate of 5 µL/min. The surface carboxylic acid groups were activated with 0.2 M sulfo-NHS and 0.1 M 1-ethyl-3-(3-dimethylaminopropyl)carbodiimide (EDC, Xantec) (CM5 and CMD200M: 0.05 M) in 5 mM 2-(N-morpholino)ethanesulfonic acid (MES buffer, abcr Swiss AG, Switzerland) at pH 5.0 for 550 s (CM5 and CMD200M: 180 s) using 5 mM MES (pH 6.5) as the running buffer. K18-tau and αSyn fibrils were diluted to 2.5–10 µM in 5 mM acetate buffer (Fisher Scientific, Switzerland) at pH 4.5 and coupled for 750 s at a flow rate of 5 µL/minute on all surfaces except for ZD150D. Surfaces were blocked with 1 M ethanolamine (Xantec, Germany) for 500 s. On the ZC150D chip, K18-tau, αSyn and Aβ42 were immobilized at 2.5–10 µM in 5 mM MES, pH 6.5, for 750 s to a surface activated with 0.5 M EDC and 0.1 M sulfo-NHS for 600 s in 5 mM MES, pH 6.5. Finally, the surface was blocked with 1 M glycine in 10 mM MES, pH 6.5.

[5] = molecular target: T5, pS129-positive αSyn inclusions (Homo sapiens, UniProt P37840); assay: Immunofluorescence staining and colocalization, PD patient brain slices; details: for M1, fraction of A overlapping B / M2, fraction of B overlapping A: Manders' coefficient, sample PD, antibody (A) pS129, ligand (B); for Ligand detection of αSyn inclusions: medulla oblongata tissue slices from two PD patients, costained with pS129 antibody
T5 construct: tissue Netherlands Brain Bank; host or cells: postmortem PD brain, medulla oblongata
From the text: Two PD patients, each with a clinical diagnosis confirmed by pathological examination of Lewy bodies (Braak LB 6, without tau and Aβ), were included in this study (detailed information in Table 1). Paraffin-embedded autopsied brain tissues from the medulla oblongata and cerebellum with high αSyn inclusion accumulation were obtained from the Netherlands Brain Bank (NBB), Netherlands (Table 2).
The details on the antibodies and ligand concentrations are described in STable 1. 2. Human paraffin-embedded brain sections (3 µm) were deparaffinized and rehydrated prior to antigen retrieval step (citrate buffer pH 6.0) in a microwave for 20 min at 98 °C. The sections were then costained with anti-αSyn (phospho-S129, pS129) antibody plus fluorescent secondary antibody. Ligands were incubated after secondary antibody incubation for 30 min. Sections were counterstained using 4’,6-diamidino-2-phenylindole (DAPI). Mouse brains were embedded in tissue freezing media (OCT Compound, Tissue Tek, USA) and cut into 30–40 μm thick consecutive coronal sections using a cryostat microtome (CM3050 S, Leica, Germany). All sections spanning the complete rostrocaudal extent of the brain were kept in the correct order and stored at 4 °C in cryoprotect solution (1:1:3 volume ratio of ethylenglycol, glycerol and 0.1 M PBS) until further processing. Anti-αSyn pS129 antibodies, anti-phospho-tau antibodies (AT-8, AT-100), or anti-Aβ1-16 antibody 6E10 plus fluorescent secondary antibody were used as previously described on brain slices from αSyn PFF-injected mice, arcAβ mice, and pR5 mice. Ligands were incubated with secondary antibody for 30 min. Sections were counterstained with DAPI. The brain sections were imaged at 20 × magnification using an Axio Observer Z1 microscope (whole brain slide scanner) and at 63 × magnification using a Leica SP8 confocal microscope (Leica, Germany) for colocalization. It took approximately 1–1.5 h to acquire the tilted human brain slices by a slide scanner in our experiment (20 ×). The time varied depending on the size of the sample. Lambda scans were performed using a Leica SP8 confocal microscope for the emission spectrum of the ligands on the staining as previously described to validate the signal. The images were analyzed using Qupath and Fiji (NIH, U.S.A.). Colocalization analysis of the confocal microscopy images (probe and antibody channels) was performed by using Fiji, and Manders' coefficients (M1, M2) were computed.

[6] = molecular target: T6, tau inclusions (AT-8/AT-100 positive) (Homo sapiens, UniProt P10636, P618L); assay: Immunofluorescence staining and colocalization, pR5 mouse brain; details: for M1, fraction of A overlapping B / M2, fraction of B overlapping A: Manders' coefficient, pR5 mouse
T6 construct: from tissue; host or cells: brain (cortex, hippocampus) of pR5 transgenic mice
T6 sequence (P10636 1-441 isoform P10636-8 P301L): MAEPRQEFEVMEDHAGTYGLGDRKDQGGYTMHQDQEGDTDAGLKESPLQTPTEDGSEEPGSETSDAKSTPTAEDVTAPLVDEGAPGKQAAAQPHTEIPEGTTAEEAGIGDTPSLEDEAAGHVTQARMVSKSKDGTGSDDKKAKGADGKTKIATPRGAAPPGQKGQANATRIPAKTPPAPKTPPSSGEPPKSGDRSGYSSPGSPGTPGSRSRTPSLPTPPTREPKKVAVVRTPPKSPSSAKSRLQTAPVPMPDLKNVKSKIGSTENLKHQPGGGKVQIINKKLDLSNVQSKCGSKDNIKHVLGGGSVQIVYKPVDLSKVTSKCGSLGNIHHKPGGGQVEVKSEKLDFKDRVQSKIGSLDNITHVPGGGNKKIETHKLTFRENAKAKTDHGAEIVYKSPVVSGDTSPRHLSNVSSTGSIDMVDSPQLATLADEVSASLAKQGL

[7] = molecular target: recombinant K18 tau fibrils (Homo sapiens, UniProt P10636); assay: Fluorescence assay of ligands with K18 tau fibrils; assay type: binding; parameters: made in house; host or cells: E. coli; details: ligand bound to K18 tau fibrils; emission peaks
recombinant K18 tau fibrils, sequence (P10636 561-685 limits assumed): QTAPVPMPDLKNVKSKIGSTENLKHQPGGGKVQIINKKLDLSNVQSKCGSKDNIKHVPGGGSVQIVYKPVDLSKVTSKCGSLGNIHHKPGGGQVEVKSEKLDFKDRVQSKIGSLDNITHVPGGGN
From the text: (§4) Recombinant Aβ42, K18-tau, full-length 2N4R tau (441 aa) and αSyn were expressed and measured for binding with fluorescent ligands as described previously (details in the supplementary material).
(§5) Recombinant Aβ42, K18 tau, full-length 2N4R tau (441 aa) and αSyn were expressed and produced by E. coli as described previously. As a substrate for HRP, Pierce ECL and Western blotting substrate (Thermo Fisher Scientific, U.S.A.) were used to detect Aβ42 and αSyn. To detect K18 tau, ECL Prime Western blotting detection reagents (Cytiva, U.S.A.) were used. Images of the resulting blots were taken with an ImageQuant LAS 4000 (GE Healthcare). […] For Aβ42, the quantity was 3.7 μg because of a higher dilution. […] K18 tau was detected using a monoclonal tau antibody (anti-tau 4-repeat isoform RD4, clone 1E1/A6). Aβ42 was detected with a monoclonal Aβ antibody (clone BAM-10), and αSyn was detected using a monoclonal αSyn antibody (clone Syn211). […] After incubation of the protein solutions, fibrillization was verified by thioflavin T fluorescence assay: 45 μL of thioflavin T (5 μM, Sigma Aldrich, U.S.A.) was mixed with either 2 μL of the incubated αSyn, 5 μL of K18 tau, full-length 2N4R tau or 5 μL of Aβ42 in a 45 µL quartz cuvette (quartz […] Ultra-Micro Cell, Hellma GmbH, Germany).

[8] = molecular target: T4, recombinant αSyn fibrils; assay: Fluorescence assay of ligands with αSYN fibrils; assay type: binding; details: ligand bound to αSYN fibrils; emission peaks
From the text: as §4, §5

[9] = molecular target: T2, recombinant Aβ42 fibrils; assay: Fluorescence assay of ligands with Aβ42 fibrils; assay type: binding; details: ligand bound to Aβ42 fibrils; emission peaks
From the text: as §4, §5

[10] = molecular target: T2, recombinant Aβ42 fibrils; parameters: method as in PMID 27767229; details: read-out: EC50, competition with [^3H]X-34; cited from earlier work
[11] = antibody (A) AT-100, ligand (B)

T1 sequence (P10636 1-441 isoform P10636-8): as the sequence (P10636 1-441 isoform P10636-8 P301L) above, with L301P counted along it

Row | SMILES | M1, fraction of A overlapping B [3] | M2, fraction of B overlapping A [3] | Colocalization of ligand with pS129 signal [3] | ka, rate constant of association [4] | kon [4] [M⁻¹ s⁻¹] | M1, fraction of A overlapping B [5] | M2, fraction of B overlapping A [5] | Ligand detection of αSyn inclusions [5] | M1, fraction of A overlapping B ([6]; antibody (A) AT-8, ligand (B)) | M2, fraction of B overlapping A ([6]; antibody (A) AT-8, ligand (B)) | Emission wavelength [7] [nm] | Emission wavelength [8] [nm] | Emission wavelength [9] [nm] | M1, fraction of A overlapping B [6, 11] | M2, fraction of B overlapping A [6, 11] | ka, rate constant of association [1] | ka, rate constant of association [2] | EC50 [10] [nM] | Ligand detection of tau inclusions ([6]; pR5 mice, cortex and hippocampus, costained with AT-8)
1 | Cc1c(OCC(F)(F)F)ccnc1C[S+]([O-])c1nc2ccccc2[nH]1 (stereo not drawn) [Lan, lansoprazole] |  |  |  |  |  |  |  |  |  |  |  |  |  |  |  | lower than 10^3 M^−1 s^−1 | lower than 10^3 M^−1 s^−1 |  | 
2 | O=C(O)Cc1cc(-c2ccc(-c3cc(CC(=O)O)c(-c4ccc(C(=O)O)s4)s3)c3nsnc23)sc1-c1ccc(C(=O)O)s1 [HS-169] | 0.673 | 0.84 | Colocalization | 1.45E + 05 M^−1 s^−1 | 288000 | 0.81 | 0.866 | bound to pS129-positive αSyn inclusions | 0.164 | 0.279 | 640 | 643 | 650 |  |  |  |  |  | 
3 | CC[n+]1c(/C=C/C=C/c2ccc(N(C)C)cc2)sc2ccccc21 [PBB5] |  |  |  |  |  |  |  |  | 0.39 | 0.09 | 688 | 690 | 695 | 0.024 | 0.018 |  |  |  | confirmed the presence of PBB5 in tau inclusions

Second part, led by results:

Row | M1, fraction of A overlapping B [3] | M2, fraction of B overlapping A [3] | Colocalization of ligand with pS129 signal [3] | ka, rate constant of association [4] | kon [4] [M⁻¹ s⁻¹] | M1, fraction of A overlapping B [5] | M2, fraction of B overlapping A [5] | Ligand detection of αSyn inclusions [5] | M1, fraction of A overlapping B ([6]; antibody (A) AT-8, ligand (B)) | M2, fraction of B overlapping A ([6]; antibody (A) AT-8, ligand (B)) | Emission wavelength [7] [nm] | Emission wavelength [8] [nm] | Emission wavelength [9] [nm] | M1, fraction of A overlapping B [6, 11] | M2, fraction of B overlapping A [6, 11] | SMILES | ka, rate constant of association [1] | ka, rate constant of association [2] | EC50 [10] [nM] | Ligand detection of tau inclusions ([6]; pR5 mice, cortex and hippocampus, costained with AT-8)
4 | 0.839 | 0.838 | Colocalization |  |  |  |  |  |  |  |  |  |  |  |  | O=C(O)Cc1cc(-c2ccc(-c3cc(CC(=O)O)c(-c4ccc(C(=O)O)s4)s3)s2)sc1-c1ccc(C(=O)O)s1 [HS-84] |  |  |  | 
5 |  |  |  | 111000 M⁻¹ s⁻¹ | 162000 | 0.404 | 0.4 | bound to pS129-positive αSyn inclusions | 0.215 | 0.07 |  |  |  | 0.459 | 0.16 | O=C(O)Cc1cc(-c2ccc(-c3ccc(C(=O)O)s3)s2)sc1-c1ccc(-c2sc(-c3ccc(-c4ccc(C(=O)O)s4)s3)cc2CC(=O)O)s1 [h-FTAA, Hepta-formylthiophene acetic acid] |  |  | ~250 | 

Reference: publication PMC11527973, “Efficient characterization of multiple binding sites of small molecule imaging ligands on amyloid-beta, tau and alpha-synuclein” (European Journal of Nuclear Medicine and Molecular Imaging, 2024)
